Measured values published in patent US8691818B2, “Cyclic triazo and diazo sodium channel blockers” (University Of Greenwich, priority 2008, dated 2014).
Counter-ions that a name gives are not always drawn.

Key:
[1] = system: Sodium Channel, Site 2; format: binding, Wistar Rat; settings: for IC50: read-out: [3H]BTX-B binding Extrapolated IC50
[2] = system: 0.4 mm slices of rat hippocampus; experiment: tissue or blood; format: cell-based

| Structure (SMILES) | [3H]BTX-B binding % inhibition (@ 10 μM) [1] [%] | IC50 [1] [µM] | other results |
| --- | --- | --- | --- |
| Cn1nc(-c2cc(F)c(F)cc2Cl)c(N)nc1=N [CEN-204, 5(3)-Amino-6-(2-chloro-4,5-difluoro-5-phenyl)-2,3(2,5)-dihydro-3(5)-imino-2-methyl-1,2,4-triazine mesylate] | 52 | 9 |  |
| CCn1nc(-c2cc(F)c(F)cc2Cl)c(N)nc1=N.CS(=O)(=O)O [CEN-205, 5(3)-Amino-6-(2-chloro-4,5-difluoro-5-phenyl)-2,3(2,5)-dihydro-3(5)-imino-2-ethyl-1,2,4-triazine mesylate] | 79 | 3 |  |
| Nc1nnc(-c2ccc(F)c(F)c2F)c(N)n1 [CEN-206, 3,5-Diamino-6-(2,3,4-trifluorophenyl)-1,2,4-triazine] | 24 | 32 | melting point: 242 to 243 °C |
| Nc1nnc(-c2cc(F)c(F)cc2Cl)c(N)n1 [CEN-207, 3,5-Diamino-6-(2-chloro-4,5-difluorophenyl)-1,2,4-triazine] | 30 | 23 | melting point: 240 to 242 °C |
| Nc1nnc(-c2cc(F)c(F)c(F)c2F)c(N)n1 [CEN-208, 3,5-Diamino-6-(2,3,4,5-tetrafluorophenyl)-1,2,4-triazine] | 31 | 22 | melting point: 233 to 235 °C |
| Cc1ccc(S(=O)(=O)O)cc1.Nc1nnc(-c2c(C(F)(F)F)ccc(Cl)c2Cl)c(N)n1 [CEN-209, 3,5-Diamino-6-(2,3-dichloro-6-trifluoromethylphenyl)-1,2,4-triazine tosylate] | 36 | 18 |  |
| N=c1nc(N)c(-c2cc(C(F)(F)F)cc(Cl)c2F)nn1CC(F)(F)C(F)F.O=S(=O)(O)C(F)(F)F [CEN-210, 5(3)-Amino-6-(3-chloro-2-fluoro-5-trifluoromethyphenyl)-2,3(2,5)-dihydro-3(5)-imino-2-(2,2,3,3-tetrafluoropropyl)-1,2,4-triazine trifluoromethanesulphonate] | 43 | 13 |  |
| N=c1nc(N)c(-c2cc(C(F)(F)F)cc(Cl)c2F)nn1CC(F)(F)C(F)(F)F.O=S(=O)(O)C(F)(F)F [CEN-211, 5(3)-Amino-6-(3-chloro-2-fluoro-5-trifluoromethyphenyl)-2,3(2,5)-dihydro-3(5)-imino-2-(2,2,3,3,3-pentafluoropropyl)-1,2,4-triazine trifluoromethanesulphonate] | 106 | < 0.5 |  |
| Cc1ccc(S(=O)(=O)O)cc1.Nc1nnc(-c2c(F)c(F)c(F)c(F)c2F)c(N)n1 [CEN-212, 3,5-Diamino-6-(2,3,4,5,6-pentafluorophenyl)-1,2,4-triazine tosylate] | 0 | > 200 |  |
| Nc1nnc(C(c2ccc(Cl)cc2)c2ccc(Cl)cc2)c(N)n1 [CEN-213, 3,5-Diamino-6-[1,1 bis-(4-chlorophenyl)methyl]-1,2,4-triazine] | −2 | > 200 |  |
| Cc1ccc(S(=O)(=O)O)cc1.Nc1nnc(-c2c(Cl)ccc(Cl)c2Cl)c(N)n1 [CEN-214, 3,5-Diamino-6-(2,3,6-trichlorophenyl)-1,2,4-triazine tosylate] | 10 | 90 |  |
| CC(C)(Oc1ccc(Cl)cc1)c1nnc(N)nc1N [CEN-215, 3,5-Diamino-6-{1-(4-chlorophenoxy)-1-methyl}ethyl-1,2,4-triazine tosylate] | 22 | 35 |  |
| O=C1NC(=O)C(c2ccccc2)(c2ccccc2)N1 [DPH, reference compound] |  |  | % protection (v 1 μM TTX) (mean ± sem) (no. of expt's) ([2]; 30 μM, iodoacetate 400 μM insult, slice ATP): 48% |
| CN1CCN(c2ncc(-c3cc(Cl)cc(Cl)c3Cl)c(N)n2)CC1 [Sipatrigine, reference compound] |  |  | Emax at 30 µM ([2]; Rattus norvegicus, 30 μM, iodoacetate 400 μM insult, slice ATP, read-out: % protection (v 1 μM TTX) (mean ± sem) (no. of expt's)): 58% |
| NC1=N[C@H](O)[C@H]2[C@H]3O[C@]4(O)O[C@@H]([C@@H](O)[C@@]2(N1)[C@@H]4O)[C@]3(O)CO [TTX, tetrodotoxin, reference compound] |  |  | % protection (v 1 μM TTX) [2]: 100% |
